Laboratory results from US7504390B2, “Benzoxazepine derivatives and their use as AMPA receptor stimulators” (N.V. Organon, priority 2001, dated 2009).

Legend:
AMPA receptor = assay: Patch clamp whole cell electrophysiology: glutamate-evoked steady state current in cultured hippocampal neurons; assay type: cell-based, Sprague-Dawley rats; settings: 10 μM compound in extracellular solution; glutamate 0.5 mM; holding potential −60 mV; cultured rat hippocampal neurons
From the text: The benzoxazepines of the invention are AMPA receptor stimulators, as can be determined by an increase in steady state current induced by application of glutamate in a conventional whole cell patch clamp method when a benzoxazepine of the invention is present (see Example 30 and Table I). The compounds may be used in the treatment of neurological and psychiatric diseases where an enhancement of synaptic responses mediated by AMPA receptors is required, such as neuro-degenerative disorders, cognitive or memory dysfunction, memory and learning disorders such as can result from ageing, attention disorder, trauma, stroke, epilepsy, Alzheimer's disease, depression, schizophrenia, psychotic disorders, anxiety, sexual dysfunctions, autism, or a disorder or disease resulting from neurotic agents or substance abuse, and alcohol intoxication.
Hippocampal neurons were prepared from embryonic or 1-3 day old Sprague-Dawley rats which were decapitated and the heads immediately placed in ice cold HBS (HEPES Buffered Solution: 130 mM NaCl, 5.4 mM KCl, 10 mM HEPES, 1.0 mM MgCl2, 1.8 CaCl2, 25 mM glucose, adjusted to pH 7.4). The whole brain was excised and placed on pre-sterilised filter paper, soaked in HBS and the cerebellum was removed. The brain was chopped and an enzyme solution (0.5 mg/ml protease X and 0.5 mg/ml protease in HBS) was added and subsequently left for 40 minutes at room temperature to digest before trituration. Cells were resuspended and then counted to give a final concentration of 1.5×10^8 per ml. Cells were aliquoted onto poly-D-lysine- and Matrigel®-treated coverslips and left to incubate at 37° C. for 1-2 hours. When incubation was complete, 1 ml of growth medium was added to each well containing a coverslip and the cells were returned to the incubator. After 3-5 days the mitotic inhibitor cytosine arabinoside (5 μM) was added and the cells returned to the incubator until required.
The whole cell configuration of the patch clamp technique (Hamill et al., Pflũgers Arch. 1981, 39, 85-100) was used to measure glutamate-evoked currents from postnatal hippocampal neurons maintained in culture for 4-7 days. A glass coverslip containing the culture was transferred to the recording chamber (Warner Instrument Corp., Hamden, Conn.) mounted on the stage of an inverted microscope (Nikon, Kingston, UK). The recording chamber contained 1-2 ml extracellular solution (145 mM NaCl, 5.4 mM KCl, 10 mM HEPES, 0.8 mM MgCl2, 1.8 CaCl2, 10 mM glucose and 30 mM sucrose, adjusted to pH 7.4 with 1M NaOH) and was constantly perfused at a rate of 1 ml/min. Recordings were performed at room temperature (20-22° C.) using an Axopatch 200B amplifier (Axon Instruments Ltd., Foster City, Calif.). Data acquisition and analysis was performed using Signal software (Cambridge electronic Design Ltd., Cambridge, UK). Pipettes were manufactured from GC120F-10 glass (Harvard Apparatus, Edenbridge UK) using a model P-87 electrode puller (Sutter Instruments Co., Novarto, Calif.). The patch electrodes had typical resistances of between 3-5 MΩ when filled with intracellular solution (140 mM potassium gluconate, 20 mM HEPES, 1.1 mM EGTA, 5 mM phosphocreatine, 3 mM ATP, 0.3 mM GTP, 0.1 mM CaCl2, 5 mM MgCl2, adjusted to pH 7.4 with 1M KOH).
Cells were voltage clamped at a holding potential of −60 mV and glutamate (0.5 mM) was applied using a 12 channel semi-rapid drug application device (DAD-12. Digitimer Ltd., Welwyn Garden City, UK). The agonist glutamate was applied for 1 s every 30 s. […] Between applications saline flowed to clear any dead volume in the system. For each application steady-state currents were plotted from the difference in baseline and steady state current and averaged over 300 ms.
Two solutions of the compound in extracellular solution were made up, one with glutamate and one without. The protocol was: 10 second application of compound, 1 second application of compound+glutamate and then 10 second wash with saline, then a 10 second delay. […]

[1] = Differential Reinforcement of Low Rates of Responding, 72 Seconds (DRL72); assay type: in vivo; settings: rats; intraperitoneal route 30 minutes before the test session
Procedure: Rats are pretrained in a standard operant chamber to perform a DRL72 procedure according to Andrews et al (Andrews J S, Jansen J H M, Linders S, Princen A, Drinkenburg W H I M, Coenders C J H and Vossen J H M (1994). Effects of imipramine and mirtazapine on operant performance in rats. Drug Development Research, 32:58-66). The test session lasts for 60 minutes with no limit to the number of trials. Each trial begins with the stimulus light on above the active lever. A response on the lever only results in delivery of a pellet if 72 seconds has elapsed. A response on the lever before 72 seconds has elapsed resets the timer and is not rewarded. The number of pellets earned and the number of lever presses is recorded and used to calculate an efficiency score. Test compounds are administered via the intraperitoneal route 30 minutes before the start of the test session. Antidepressants increase the number of pellets earned and decrease the number of lever presses (Andrews et al, 1994).

[2] = Inhibition of amphetamine-induced hyperlocomotion; assay type: in vivo; settings: mice; sc, 30 minutes before 1.5 mg/kg d-amphetamine sulphate sc; measured for 60 minutes
Procedure: Mice were injected sc with drug or vehicle control. 30 Minutes later mice were injected sc with 1.5 mg/kg d-amphetamine sulphate or saline and immediately placed in infra red locomotor boxes where locomotor activity (long duration beam breaks of two adjacent beams) and stereotypic behaviour (repetitive short-duration beam breaks) were measured for a period of 60 minutes. The experiment was analysed using a 3-Way ANOVA with experimental session, infra red locomotor boxes and treatment as factors, and in the case of treatment, significant effects were followed up using a Tukey (HSD) test.

Structure (SMILES) | % Increase In steady state current at 10 μM (AMPA receptor) [%] | also measured
N#Cc1ccc2c(c1)C(=O)N1CCC[C@@H]1CO2 [Example 19, (R)-7-Cyano-2,3,11,11a-tetrahydro-1H5H-pyrrolo[2,1-c][1,4]benzoxazepine-5-one] |  | melting point: 164 to 165 °C
O=C1c2ccccc2OC[C@@H]2C[C@H](F)CN12 [Example 26, (2S,11aS)2-Fluoro-23,11,11a-tetrahydro-1H,5H-pyrrolo[2,1-c][1,4]benzoxazepine-5-one] | 24 | 
O=C(c1ccc2c(c1)C(=O)N1CCC[C@H]1CO2)N1CCOCC1 [Example 16A, (S)-7-(morpholinocarbonyl)-2,3,11,11a-tetrahydro-1H,5H-pyrrolo[2,1-c][1,4]-benzoxazepine-5-one] | 24 | 
O=C1c2ccccc2OC[C@@H]2CC(F)(F)CN12 [Example 28, (2S)-2,2-Difluoro-2,3,11,11a-tetrahydro-1H,5H-pyrrolo[2,1-c][1,4]benzoxazepine-5-one] | 9 | 
O=C1c2ccc(Cl)cc2OC[C@H]2CCCN12 [Example 4, (R)-8-chloro-2,3,11,11a-tetrahydro-1H,5H-pyrrolo[2,1-c][1,4]benzoxazepine-5-one] |  | melting point: 92 to 94 °C
O=C1c2cccc(Cl)c2OC[C@@H]2CCCN12 [Example 8, (S)-9-Chloro-2,3,11,11a-tetrahydro-1H,5H-pyrrolo[2,1-c][1,4]benzoxazepine-5-one] |  | melting point: 89 to 90 °C
O=C1c2ccccc2OC[C@H]2CCCN12 [(R)-2,3,11,11a-tetrahydro-1H,5H-pyrrolo[2,1-c][1,4]benzoxazepine-5-one, reference compound] | 24 | 
O=C1c2cccc(F)c2OC[C@@H]2CCCN12 [Example 3B, (S)-9-Fluoro-2,3,11,11a-tetrahydro-1H,5H-pyrrolo[2,1-c][1,4]benzoxazepine-5-one] | 20 | antidepressant like profile in DRL72 [1]: antidepressant like profile
O=C1c2ccccc2OC[C@@H]2CCN12 [Example 23, (S)-1,2,10,10a-Tetrahydroazetidinyl[2,1-c][1,4]benzoxazepin-4-one] | 16 | 
O=C1c2cc(F)ccc2OC[C@@H]2CCCN12 [Example 2, (S)-7-Fluoro-2,3,11,11a-tetrahydro-1H,5H-pyrrolo[2,1-c][1,4]benzoxazepine-5-one] | 19 | 
O=S1(=O)c2ccccc2OC[C@@H]2CCCN21 [Example 10, (S)-2,3,11,11,a-tetrahydro-1H,5H-pyrrolo[2,1-c][5,1,4]benzthiaoxazepine-5-dioxide] | 7 | 
CC(=O)Nc1ccc2c(c1)C(=O)N1CCC[C@H]1CO2 [Example 14, (S)-N-(2,3,11,11a-tetrahydro-5-oxo-1H,5H-pyrrolo[2,1-a][1,4]benzoxazepin-7-yl)-acetamide] | 49 | 
COc1ccc2c(c1)OC[C@@H]1CCCN1C2=O [Example 11, (S)-8-Methoxy-2,3,11,11a-tetrahydro-1H,5H-pyrrolo[2,1-c][1,4]benzoxazepine-5-one] | 21 | 
CC[C@H]1Oc2ccccc2C(=O)N2CCC[C@@H]12 [Example 20A, (11R, 11aS)-11-Ethyl-2,3,11,11a-tetrahydro-1H,5H-pyrrolo[2,1-c][1,4]benzoxazepine-5-one] | 31 | 
O=C1c2ccccc2OCC2COCCN12 (stereo not drawn) [Example 22, 6,6a-Dihydro-12H-Morpholino[3,4-c][1,4]benzoxazepin-12-one] | 31 | 
CC[C@@H]1Oc2ccccc2C(=O)N2CCC[C@@H]12 [Example 20B, (11S. 11aS)-11-Ethyl-2,3,11,11a-tetrahydro-1H,5H-pyrrolo[2,1-c][1,4]benzoxazepine-5-one] | 28 | 
O=C1c2ccccc2OC[C@@H]2CCCN12 [(S)-2,3,11,11a-tetrahydro-1H,5H-pyrrolo[2,1-c][1,4]benzoxazepine-5-one, reference compound] | 53 | antipsychotic like activity (inhibited amphetamine induced hyperlocomotion) [2]: antipsychotic like activity
O=C1c2cccc(F)c2OC[C@H]2CCCN12 [Example 3A, (R)-9-Fluoro-2,3,11,11a-tetrahydro-1H,5H-pyrrolo[2,1c][1,4]benzoxazepine-5-one] | 23 | antipsychotic like activity (inhibited amphetamine induced hyperlocomotion) [2]: antipsychotic like activity
O=C1c2cc(F)ccc2OC[C@H]2CCCN12 [Example 1, (R)-7-Fluoro-2,3,11,11a-tetrahydro-1H,5H-pyrrolo[2,1-c][1,4]benzoxazepine-5-one] | 17 | 
O=C(c1ccc2c(c1)C(=O)N1CCC[C@H]1CO2)N1CCCCC1 [Example 15, (S)-7-(Piperidinocarbonyl)-2,3,11,11a-tetrahydro-1H,5H-pyrrolo[2,1-c][1,4]benzoxazepine-5] |  | melting point: 140 to 140.5 °C
NC(=O)c1ccc2c(c1)C(=O)N1CCC[C@H]1CO2 [Example 17A, (S)-7-(aminocarbonyl)-2,3,11,11a-tetrahydro-1H,5H-pyrrolo[2,1-c][1,4]benzoxazeline-5-one] | 8 | 
CC1(C)COC2COc3ccccc3C(=O)N21 (stereo not drawn) [Example 24, 2,11,11a-Trihydro-3,3dimethyloxazolidinyl[2,1-c][1,4]-benzoxazepin-5-one] | 18 | 
O=C1c2ccccc2OC[C@@H]2C[C@@H](O)CN12 [Example 25, (2R,11aS)-2-Hydroxy-2,3,11,11a-tetrahydro-1H,5H-pyrrolo[2,1-c][1,4]benzoxazepine-5-one] | 31 | 
O=C1c2ccc(F)cc2OC[C@@H]2CCCN12 [Example 5, (S)-8-fluoro-2,3,11,11a-tetrahydro-1H,5H-pyrrolo[2,1-c][1,4]benzoxazepine-5-one] |  | melting point: 75 to 76 °C
